# Laboratory results reported in PMC7617869, “Molecular glues that inhibit deubiquitylase activity and inflammatory signaling” (Nature Structural & Molecular Biology, 2025).
# Several values for one entry are separate records, joined by “and”; a condition that tells them apart may be missing. Equal values may be shown once.
# Columns and labels:
# [1] = tested on: ISG expression in MCF10A Cas9 cells expressing BRCC45 R137A; test: MCF10A BRCC45 R137A ISG expression (RT–qPCR); format: cell-based, human; set-up: scale not given here; details: BRCC45 KO+ BRCC45 R137A; replicate values
# Protocol: Supplementary Protocols 1. Experimental procedures for cell biology experiments. […]
# Media supplements including human insulin solution (Santa Cruz Biotechnology, #sc-360248), cholera toxin from vibrio (Sigma Aldrich, #C8052-2MG), recombinant human EGF (PeproTech, #AF-100-15-100µg), hydrocortisone (Sigma-Aldrich, #H-0888) were used to grow MCF10A cells. The 4–12% Bis-Tris SDS-PAGE gels, cell culture media, horse serum and other materials for tissue culture were purchased from Invitrogen. LipoD293 (SigmaGen, #SL100668) was used for all the transfections to generate knock out cell lines.
# Immortalised breast epithelial cell line MCF10A were cultured in 10 cm plates with Dulbecco’s Modified Eagle Medium (DMEM) + F-12 (1:1) supplemented with 5% horse serum, 100 ng/mL cholera toxin, 10 […]
# Real-time quantitative PCR
# 1x10^5 MCF10A cells were cultured as described above and seeded into 6 well plates. Cells were left to reach ultra-confluence. Once confluent, cells were washed with PBS and starved for 30 minutes in 2 mL DMEM + F-12 (1:1) supplemented with 1% horse serum. After 30 minutes cells were pre-treated with either DMSO (0.1%) (Control and IFN only) or BRISC inhibitor (2.5 µM) for 15 minutes. After 15 minutes, hIFN2α (75 ng/mL) was added to the media and mixed. Cells were treated for 4 hours. Cells were washed with ice cold PBS and scraped with cell scrapers into 350 µL RNAlater buffer and RNA […]
# #79254). Isolated RNA was quantified using a Nanodrop spectrophotometer. RNA was converted into cDNA and the complementary DNA was used for real-time quantitative PCR analysis of expression of interferon stimulated genes (ISG15, IFIT1, IFIT2, IFITM1, CXCL10 and RNA18S) using an Applied Biosystems Quantstudio 6 RT-PCR system. All experiments were carried out in triplicate.
# BRISC = target: T1, BRISC (Homo sapiens, UniProt P46736+Q15018+Q9NXR7); test: BRISC DUB activity assay (IQF K63-linked diubiquitin); format: biochemical; details: for Normalised V0: replicate columns
# T1 construct: made in house; host or cells: Spodoptera frugiperda (Sf9) insect cells, MultiBac
# Outline: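 Enzyme at 1 nM (BRISC WT or mutant) hydrolysed 50 nM IQF K63 diubiquitin in 50 mM HEPES–NaOH pH 7.0, 100 mM NaCl buffer at 30 °C. Kinetic fluorescence at 544/575 nm gave V0 over 30 min. Dose–response curves were fitted with variable slope to give IC50.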
smiles,measurement,setting,value
Cn1cc(NC(=O)c2c(Cl)cccc2Cl)c(C(=O)NC2CCN(C(=O)c3c(Cl)cccc3Cl)CC2)n1 [AP-5-145],ISG expression (Fig. 5b),[1],1.156 and 0.9393 and 0.8616 and 0.9356 and 0.9314
same,ISG expression (Fig. 5c),[1],1.216 and 0.9273 and 0.916 and 0.9352 and 0.7895
same,ISG expression (Fig. 5e),[1],1.091 and 0.9001 and 0.8733 and 0.8458 and 0.7765
same,ISG expression (Fig. 5f),[1],1.662 and 0.8736 and 0.8819 and 0.8534 and 1.058
same,ISG expression (Fig. 5d),[1],1.117 and 1.15 and 0.9989 and 1.074 and 0.7573
same,inhibition of BRISC DUB activity (in words),BRISC; IQF diubiquitin assay,no inhibitory effect
same,Normalised V0,BRISC; [Inhibitor] 0.013 μM,0.9159 and 1.143 and 0.9058 and 0.9388
same,Normalised V0,BRISC; [Inhibitor] 0.02 μM,0.9923 and 1.0109
same,Normalised V0,BRISC; [Inhibitor] 0.0399999 μM,0.8997 and 0.9429
same,Normalised V0,BRISC; [Inhibitor] 0.0599997 μM,0.9873 and 1.113
same,Normalised V0,BRISC; [Inhibitor] 0.0799994 μM,0.9492 and 1.054
same,Normalised V0,BRISC; [Inhibitor] 0.119998 μM,0.9627 and 1.064
same,Normalised V0,BRISC; [Inhibitor] 0.199996 μM,0.9243 and 0.9333
same,Normalised V0,BRISC; [Inhibitor] 0.499975 μM,0.9206 and 1.055
same,Normalised V0,BRISC; [Inhibitor] 0.799936 μM,0.5226 and 1.107
same,Normalised V0,BRISC; [Inhibitor] 1.25984 μM,0.877 and 1.051
same,Normalised V0,BRISC; [Inhibitor] 1.9996 μM,0.8804 and 1.0497
same,Normalised V0,BRISC; [Inhibitor] 3.159 μM,0.8796 and 0.9314
same,Normalised V0,BRISC; [Inhibitor] 5.19739 μM,1.075 and 0.9343
same,Normalised V0,BRISC; [Inhibitor] 7.99364 μM,0.9828 and 1.083
same,Normalised V0,BRISC; [Inhibitor] 12.7839 μM,1.017 and 1.039
same,Normalised V0,BRISC; [Inhibitor] 19.96 μM,1.018 and 0.9724
same,Normalised V0,BRISC; [Inhibitor] 31.4999 μM,0.9031 and 1.019
same,Normalised V0,BRISC; [Inhibitor] 50.147 μM,0.9135 and 0.9224
same,Normalised V0,BRISC; [Inhibitor] 79.7601 μM,0.8955 and 0.9782
same,Normalised V0,BRISC; [Inhibitor] 125.99 μM,0.8989 and 0.9064
same,Normalised V0,BRISC; [Inhibitor] 199.922 μM,0.8256 and 0.9679
